Key:
[1] = Stability of the compound in fasted stimulated intestinal fluid assessed as half life at pH 6; assay type: physicochemical; conditions: fasted simulated intestinal fluid
[2] = system: Human immunodeficiency virus 1; experiment: Antiviral activity against HIV1 Ba-L infected in human PBL cells assessed as reduction of viral replication after 4 days by Steady-Glo luciferase assay; assay type: functional, organism-based; conditions: Human immunodeficiency virus 1, Ba-L, 96 h
[3] = system: Human immunodeficiency virus 1; experiment: Antiviral activity against HIV1 Ba-L infected in human HOS cells assessed as reduction of viral replication after 4 days by Steady-Glo luciferase assay; assay type: functional, organism-based; conditions: Human immunodeficiency virus 1, Ba-L, 96 h
[4] = Oral bioavailability in monkey at 1 mg/kg; assay type: ADME, organism-based, Macaca mulatta; conditions: rhesus monkey, in vivo
[5] = Stability of the compound in fasted stimulated intestinal fluid within 1000 hrs; assay type: physicochemical; conditions: simulated gi fluid
[6] = Half life in monkey at 1 mg/kg, iv; assay type: ADME, organism-based, Macaca mulatta; design: dose 1 mg/kg, route intravenous; conditions: rhesus monkey, in vivo
[7] = Oral bioavailability in dog at 1 mg/kg; assay type: ADME, organism-based, Canis lupus familiaris; conditions: in vivo
PBL = experiment: Cytotoxicity against human PBL cells assessed as cell death up to 1 uM by celltiter glo assay; assay type: cell-based
[8] = Half life in dog at 1 mg/kg, iv; assay type: ADME, organism-based, Canis lupus familiaris; design: dose 1 mg/kg, route intravenous; conditions: in vivo
[9] = Clearance in monkey at 1 mg/kg, po; assay type: ADME, organism-based, Macaca mulatta; design: dose 1 mg/kg, route oral; conditions: rhesus monkey, in vivo
[10] = Clearance in dog at 1 mg/kg, po; assay type: ADME, organism-based, Canis lupus familiaris; design: dose 1 mg/kg, route oral; conditions: in vivo
[11] = Clearance in rat; assay type: ADME, organism-based; conditions: in vivo
HOS = experiment: Cytotoxicity against human HOS cells assessed as cell death up to 1 uM by celltiter glo assay; assay type: cell-based
[12] = Metabolic stability of the compound in fasted stimulated intestinal fluid; assay type: physicochemical; conditions: simulated gi fluid

For Cc1nc(Oc2ccc(NS(C)(=O)=O)cc2)ccc1CN1CCC(N(C(=O)Nc2cc(C(N)=O)c(F)cc2F)c2cccc(F)c2)CC1, the half-life [1] was 334 h, the IC50 [2] was 0.6 nM and the IC50 [3] was 2 nM.

Work on Cc1nc(Oc2ccc(NS(C)(=O)=O)cc2)ccc1CN1CCC(N(C(=O)Oc2ccc(F)c(C(N)=O)c2)c2cccc(F)c2)CC1 yielded an IC50 [3] of 29 nM.

For Cc1nc(Oc2ccc(NS(C)(=O)=O)cc2)ccc1CN1CCC(N(Cc2ccccc2F)C(=O)Nc2cc(C(N)=O)c(F)cc2F)CC1, the IC50 [2] was 0.9 nM and the IC50 [3] was 1.7 nM.

With Cc1nc(Oc2ccc(S(C)(=O)=O)cc2)ccc1CN1CCC(N2C(=O)N(c3cc(C(N)=O)c(F)cc3F)C[C@H]2c2ccccc2)CC1 the bioavailability [4] was 110%, the Stability [5] was “Stable” and the IC50 [2] was 1 nM. For the same compound, the half-life [6] was 1.4 h, the bioavailability [7] was 76% and the Activity (PBL) was “Non-toxic”. The half-life [8] was 6.9 h, the IC50 [3] was 4 nM and the CL/F [9] was 20.2 mL/min/kg. For the same compound, the CL/F [10] was 2.1 mL/min/kg, the clearance [11] was 27 mL/min/kg and the Activity (HOS) was “Non-toxic”.

With Cc1nc(Oc2ccc(S(C)(=O)=O)cc2)ccc1CN1CCC(N2C(=O)N(c3cc(C(N)=O)c(F)cc3F)C[C@@H]2c2ccccc2)CC1 the IC50 [2] was 289 nM and the IC50 [3] was 213 nM.

In the case of CC(C)c1nc(Oc2ccc(S(C)(=O)=O)cc2)ccc1CN1CCC(N2C(=O)N(c3cc(C(N)=O)c(F)cc3F)C[C@H]2c2ccccc2)CC1, the IC50 [2] is reported as 1.6 nM, the Activity (PBL) is reported as “Non-toxic” and the IC50 [3] is reported as 2.6 nM. For the same compound, the Activity (HOS) was “Non-toxic”.

For Cc1nc(Oc2ccc(S(=O)(=O)C(C)C)cc2)ccc1CN1CCC(N2C(=O)N(c3cc(C(N)=O)c(F)cc3F)C[C@H]2c2ccccc2)CC1, the IC50 [2] was 1.1 nM, the Activity (PBL) was “Non-toxic” and the IC50 [3] was 3.6 nM. The Activity (HOS) was “Non-toxic”.

With Cc1nc(Oc2ccc(S(C)(=O)=O)cc2F)ccc1CN1CCC(N2C(=O)N(c3cc(C(N)=O)c(F)cc3F)C[C@H]2c2ccccc2)CC1 the IC50 [2] was 0.6 nM, the Activity (PBL) was “Non-toxic” and the IC50 [3] was 5.2 nM. The Activity (HOS) was “Non-toxic”.

For Cc1cc(S(C)(=O)=O)ccc1Oc1ccc(CN2CCC(N3C(=O)N(c4cc(C(N)=O)c(F)cc4F)C[C@H]3c3ccccc3)CC2)c(C)n1, the Activity (PBL) was “Non-toxic”, the IC50 [3] was 5.4 nM and the Activity (HOS) was “Non-toxic”.

In the case of Cc1nc(Oc2ccc(CC(=O)NC(C)C)cc2)ccc1CN1CCC(N2C(=O)N(c3cc(C(N)=O)c(F)cc3F)C[C@H]2c2ccccc2)CC1, the IC50 [2] is reported as 0.5 nM, the Activity (PBL) is reported as “Non-toxic” and the IC50 [3] is reported as 3.3 nM. The Activity (HOS) was “Non-toxic”.

For Cc1nc(Oc2ccc(NS(C)(=O)=O)cc2)ccc1CN1CCC(N2C(=O)N(c3cc(C(N)=O)c(F)cc3F)C(=O)C2c2ccccc2)CC1 (racemic), the IC50 [3] was 14 nM and the Stability [12] was “Unstable”.

With Cc1nc(Oc2ccc(S(C)(=O)=O)cc2)ccc1CN1CCC(N2C(=O)N(c3cc(C(N)=O)c(F)cc3F)CC2c2ccccc2)CC1 (racemic) the IC50 [2] was 2 nM and the IC50 [3] was 12 nM.
